Data from patent publication US20090275503A1, “DIASTEREOMERIC PEPTIDES FOR MODULATING T CELL IMMUNITY” (Yeda Research and Developent Co., Ltd. at the Weizman …, priority 2005, published 2009).
Non-standard residues stand in square brackets, D forms with d. Residues, ends and D or L forms follow the SMILES beside them. No end group written: not given here.

How the values were obtained:
Lewis rats [1] = assay: Delayed type hypersensitivity (DTH) to PPD in AA rats (Part B); type: in vivo, rat; conditions: 16 days after AA induction
Description: (§1) Twenty μl of PPD (0.5 mg/ml in PBS) were injected intradermally into the pinna of the right ear on day 16 after AA induction; 20 μl of sterile PBS were injected in the left ear as control. The thickness of the ear was measured 48 hr later using a vernier caliper and expressed as the difference between the right and the left ear.
The activity of the T cells that mediate AA can also be detected in vivo by studying the delayed type hypersensitivity (DTH) response to PPD. We studied the DTH response to PPD 16 days after AA induction in rats treated with the three peptides.

Lewis rats [2] = assay: Adjuvant arthritis (AA) in Lewis rats (Part B); type: in vivo, rat; conditions: for Mean maximum AA score: 100 μg amidated peptide per rat at AA induction, maximum possible score 16; for Effect on adjuvant arthritis (clinical score and ankle swelling): 100 μg amidated peptide per rat with the antigen at AA induction
Description: (§2) To test the effect of CP on T-cell activation in vivo, we used AA as a model system. AA was induced by injecting 50 μl of Mt suspended in IFA (0.5 mg/ml) at the base of the tail. At the time of AA induction, each rat also received 100 μg of L-CP, D-CP or 2G CP control peptide (or PBS) dissolved in 50 μl of IFA and mixed with Mt/IFA used to induce AA. The day of AA induction was designated as day 0. Disease severity was assessed by direct observation of all 4 limbs in each animal. A relative score between 0 and 4 was assigned to each limb, based on the degree of joint inflammation, redness and deformity; thus the maximum possible score for an individual animal was 16. The mean AA score (±SEM) is shown for each experimental group. Arthritis was also quantified by measuring hind limb diameter with a caliper. Measurements were taken on the day of the induction of AA and 26 days later (at the peak of AA); the results are presented as the mean±SEM of the difference between the two values for all the animals in each group. The person who scored the disease was blinded to the identity of the groups.
To test the inhibitory effects of CP on the activation of specific T cells in vivo, we used the adjuvant arthritis (AA) model. Immunization of Lewis rats with Mt in oil triggers AA, an experimental autoimmune disease driven by Mt-specific T cells cross-reactive with self-antigens. Mt176-90-specific T cells are detectable upon induction of AA; indeed the A2b T-cell clone cross-reacts with cartilage and mediates AA. Since L and D-CP inhibited the T-cell response of primed LNC and of clone A2b to PPD and […] in vitro (FIG. 9), we also investigated the effects of L- or D-CP on the in vivo activation of the T cells that drive AA. […] The mean maximum score was 12±0.3 in the control-treated rats, compared with 6±0.7 in the D-CP-treated rats and 7.3±0.7 in the L-CP-treated rats (p<0.05 for the L and D-CP groups compared to the control groups).

cells = assay: Cytotoxicity when incubated with cells (Part B); type: cell-based, rat
[3] = test system: LNC from Mt-immunized rats; assay: T-cell proliferation of LNC or A2b T cell line (Part B, amidated peptides); type: cell-based, rat; conditions: for Inhibition of T-cell proliferative responses to PPD and to Mt176-90: amidated peptides, LNC, 72 hr
BALB/c mice = assay: Delayed type hypersensitivity to oxazalone in mice; type: in vivo, mouse; conditions: topical treatment 1 hr after oxazalone challenge; peptides 150 μg (6 mg/kg) in DMSO; measured following day
Description: Groups of 5 female inbred BALB/c mice (The Jackson Laboratory) were sensitized on the shaved abdominal skin with 100 μl of 2% Oxazalone dissolved in acetone/olive oil [4:1 (vol/vol)] applied topically. DTH sensitivity was elicited 5 days later by challenging the mice with 20 μl of 0.5% Oxazalone in acetone/olive oil, 10 μl administered topically to each side of the ear. A constant area of the ear was measured immediately before challenge and 24 h after challenge with a Mitutoyo engineer's micrometer. The individual measuring ear swelling was unaware of the identity of the groups of mice. The DTH reaction is presented as the increment of ear swelling after challenge expressed as the mean±SEM in units of 10-2 mm. One hour after the challenge the mice's ears were treated topically with either all-L CP or with 2D-CP, both dissolved in 40 μl DMSO. The activity of the peptide treatments was compared to treatment with DMSO alone for “untreated mice” and Dexamethasone (100 μg/ml in saline) as a positive control.
To test whether TCR trans-membrane peptides could inhibit the elicitation of existing DTH reactivity, groups of naïve BALB/c mice were sensitized to 2% oxazalone. Five days later, the mice were challenged with 0.5% oxazalone administered to the ear. An hour after the challenge, the mice were treated with Dimethylsulfoxide (DMSO), all-L CP 150 μg (6 mg/kg) in DMSO, 2D-CP 150 μg (6 mg/kg) in DMSO, or dexamethasone, applied topically. On the following day, ear thickness was measured the swelling of DMSO treated mice (0.33±0.01 mm) was compared to that of mice treated with all-L CP (0.30±0.01 mm), 2D-CP (0.27±0.01 mm) and Dexamethasone (0.15±0.02 mm). […] Thus, 2D-CP can inhibit a T-cell mediated immune reaction in subjects already sensitized to the antigen.

Lewis rats [4] = assay: Adjuvant arthritis (AA) in Lewis rats (Part A); type: in vivo, rat
Description: as §2, with “the experimental T-cell mediated autoimmune disease adjuvant arthritis (AA) was used.” for “we used AA as a model system.”, “(10” for “(0.5”, “all-L CP, 2D-CP” for “L-CP, D-CP”, “16 (Quintana et al., 2002).” for “16.”
Next, the contribution of the secondary structure and the side-chains to the inhibitory effects of CP on T cell activation In vivo was analyzed, using the experimental autoimmune disease Adjuvant Arthritis (AA). Immunization of Lewis rats with Mt triggers AA, an autoimmune disease driven by Mt-specific T cells that cross-react with self-antigen (Holoshitz et al., 1984; Holoshitz et al., 1983). PPD and Mt176-90 are targeted by the arthritogenic T-cell response (Anderton et al., 1994); indeed immunomodulatory therapies that inhibit the progression of arthritis have been associated with a decreased T cell response to PPD and Mt176-90 and with a diminished delayed type hypersensitivity (DTH) response to PPD (van Eden et al., 1985).

rat TCR = assay: Co-immunoprecipitation of fluorescence-labeled peptides with TCR molecules; type: binding; conditions: Rho-labeled peptides
Description: Activated A2b T cells (2×10^6) were cultured for 1 hr at 37° C. in the presence of CP or 2D-CP (25 μg/ml), or 2G-CP, and lysed for 15 min on ice in 0.1 ml lysis buffer (Adachi et al., 1996). Insoluble material was removed by centrifugation at 10.000 g for 10 min at 4° C. The lysate was then incubated overnight with Protein A-plus Agarose beads (Santa Cruz Biotechnology Inc., Santa Cruz, Calif., USA) bound to antibodies to the rat TCR or MHC class 1. The antibodies reactive against the rat TCR (clone R73) or HSP60 (clone LKI) were purified from the respective hybridomas at our lab; antibodies to rat CD28, actin and the rat MHC class 1 were purchased from Serotec (Oxford, UK). After an overnight incubation at 4° C., the beads were washed with lysis buffer, boiled for 10 minutes and the protein supernatant run in a 4-20% SDS-PAGE. The presence of co-immunoprecipitated peptide was detected by the Typhoon 9400 variable mode imager.
Next, co-immunoprecipitation experiments were performed. The affinity of the TCR/CP, the TCR/2D-CP and TCR/2G-CP interactions were compared by performing a series of co-precipitation experiments using different concentrations of Rho-labeled CP, 2D-CP and 2G-CP peptides.

Lewis rats [5] = assay: Delayed type hypersensitivity to PPD in AA rats (Part A); type: in vivo, rat; conditions: 16 days after AA induction, ear thickness 48 hr after PPD
Description: as §1, with “right ear of each rat on day” for “right ear on day”, “the left ear (Quintana et al., 2005).” for “the left ear.”

target cells = assay: Cytotoxic effect on the target cells (Part A); conditions: incubated with the target cells
LNC from Mt primed rats = assay: T-cell proliferation of LNC from Mt-immunized rats activated with PPD or Mt176-90 (Part A); type: cell-based, rat; conditions: LNC, 72 hr, 3H-thymidine incorporation

Compound	Reduction in the DTH response to PPD (Lewis rats [1])	Mean maximum AA score (Lewis rats [2])	Effect on adjuvant arthritis (clinical score and ankle swelling) (Lewis rats [2])	Cytotoxicity (cells)	Inhibition of T-cell proliferative responses to PPD and to Mt176-90 [3]	Inhibition of T-cell proliferation compared with L-CP ([3]; at the lower concentrations)	Ear swelling (BALB/c mice)	Mean maximum AA score (Lewis rats [4]; 100 μg peptide per rat at AA induction, maximum possible score 16)	Effect on adjuvant arthritis (clinical score and paw swelling) (Lewis rats [4]; 100 μg peptide per rat with Mt at the time of AA induction)	Co-precipitation with the TCR (rat TCR; activated A2b T cells)	Affinity of TCR interaction compared with TCR/2D-CP (rat TCR; different concentrations)	Reduction in the DTH response to PPD (Lewis rats [5])	Cytotoxic effect (target cells)	Inhibition of T-cell proliferation to PPD and to Mt176-90 (LNC from Mt primed rats)
CC[C@@H](C)[C@@H](NC(=O)[C@@H](CCCNC(=N)N)NC(=O)[C@@H](CC(C)C)NC(=O)CN)C(=O)N[C@H](CC(C)C)C(=O)N[C@H](CC(C)C)C(=O)N[C@H](CC(C)C)C(=O)N[C@H](CCCCN)C(=O)N[C@@H](C(N)=O)C(C)C [D-CP, X-GLRILLLKV-NH2] (H-G[dL][dR][dI][dL][dL][dL][dK][dV]-NH2)	48%	6±0.7	significantly milder arthritis	showed no cytotoxicity	inhibited the T-cell proliferative responses to PPD and to Mt176-90 in a dose-dependent manner	consistently higher	–	–	–	–	–	–	–	–
C[C@@H]1C[C@H]2[C@@H]3CCC4=CC(=O)C=C[C@]4(C)[C@@]3(F)[C@@H](O)C[C@]2(C)[C@@]1(O)C(=O)CO [Dexamethasone, reference compound]	–	–	–	–	–	–	0.15±0.02 mm	–	–	–	–	–	–	–
GLRILLLKV [all-L CP] (GLRILLLKV-NH2; listed as Homo sapiens) [wild-type core peptide derived from murine TCRα transmembrane domain, reference compound]	–	–	–	–	–	–	0.30±0.01 mm	7.7±0.7	significantly milder arthritis	can be co-precipitated with the TCR	higher affinity	39%	None of the peptides (all-L CP, 2D-CP or 2G CP) had a cytotoxic effect	inhibited T-cell proliferation to PPD and to Mt176-90 in a dose-dependent manner
GLRILLLKV-NH2 [L-CP, X-GLRILLLKV-NH2, reference compound]	39%	7.3±0.7	significantly milder arthritis	showed no cytotoxicity	inhibited the T-cell proliferative responses to PPD and to Mt176-90 in a dose-dependent manner	–	–	–	–	–	–	–	–	–
